The structures appear in SMILES notation.

What is called IC50 is the point on the concentration scale where inhibition reaches its midpoint.

One test concerns the target BRD4-BD1 (Homo sapiens (Human), UniProt O60885). The experiment in a line: AlphaLisa bromodomain binding assay, BRD4-BD1. To be noted: Table 6; read-out: BRD4(1) IC50. For orientation: Bead proximity is the source of the signal in Alpha formats.
The target of a further test is JAK2 (Homo sapiens (Human), UniProt O60674). Description: HTRF kinase assay, JAK2. It counts as biochemical. To be noted: Table 6. A general note: In TR-FRET formats the signal depends on donor and acceptor labels being close together.
The target of another test is BRD2-BD1 (Homo sapiens (Human), UniProt P25440). The experiment in a line: AlphaLisa bromodomain binding assay, BRD2-BD1. To be noted: Table 6; read-out: BRD2(1) IC50. The source says: (§1) An AlphaLisa assay was used to observe bromodomain binding and measure IC50s for the compounds disclosed herein. An AlphaLisa assay is a bead-based assay used to detect interactions between bromodomains and polyacetylated histone peptides. Donor and acceptor beads bound to target and ligand are brought into proximity by this protein-protein interaction.
(§2) Equipment Required • 1. […] Plate centrifuge • 3. Plate shaker • 4. […] Single channel and multi-channel pipettes • 6. Microplate reader (Pherastar)
(§3) Stock and Final Assay Concentrations (FAC) • 1. All reference and test compounds are made at a concentration of 10 mM in DMSO. Compounds are serially diluted in DMSO and a FAC starting from 10 μM to 10 point 3 fold serial dilutions is arrived. FAC of DMSO is 1%. • 2. Enzyme stock and FAC
(§4) Biotinylated substrate (Acetylated histone H4, biotinylated substrate—cat no. AS64989-025, Anaspec) stock and FAC
(§5) • 4. Acceptor and donor beads stock and FAC
(§6) Buffers • For the enzyme and substrate dilution following buffer is used (for 50 ml) • HEPES: 50 mM 2.5 ml • NaCl: 25 mM 1.25 ml • DTT: 10 mM 0.05 ml • BSA: 0.1% 0.05 g • MilliQ water: 45.7 ml • For dilution of acceptor and donor beads AlphaLISA 5× epigenetics Buffer Perkin Elmer (Cat: AL008C) is used at 1× concentration.
(§7) Procedure • 1. […] Tap the plate gently • 3. […] Cover with plate sealer • 5. […] Incubate the plate at room temperature for 10 minutes • 7. Add 10 μl of the substrate • 8. Cover with plate sealer • 9. […] Cover with plate sealer • 14. […] Cover with plate sealer • 18.
(§8) The percent inhibition is calculated in the excel analysis template and the IC50 values are subsequently determined using a sigmoidal dose-response curve (variable slope) using GraphPad Prism® 5 software.

For a further test, the target named is JAK3 (Homo sapiens (Human), UniProt P52333). The experiment in a line: HTRF kinase assay, JAK3. The following applies: Table 6. The format is biochemical.
Text: (§9) A kinase assay with HTRF was used to observe JAK activity and calculate the IC50s of compounds disclosed herein. HTRF is an enzymatic assay used to determine the amount of phosphorylated peptide. FRET (Fluorescence Resonance Energy Transfer) is based on the transfer of energy between two fluorophores—a donor and an acceptor—when in close proximity. Molecular interactions between biomolecules can be assessed by coupling each partner with a fluorescent label and by detecting the level of energy transfer. The amount of phopshorylated peptide can be detected using a combination of a Eu 3+Cryptate labeled anti-phospho residue antibody, SA-XL665 and a biotinylated substrate. The signal is proportional to the concentration of phospho-residues.
(§10) Equipment Required • 1. […] Plate centrifuge • 3. Plate shaker • 4. […] Single channel and multi-channel pipettes • 6. Microplate reader (Pherastar)]
(§11) Stock and Final Assay Concentrations (FAC) • 1. All reference and test compounds are made at a concentration of 10 mM in DMSO. Compounds are serially diluted in DMSO and a FAC starting from 10 μM to 10 point 3 fold serial dilutions is arrived. For Ruxolitinib the starting FAC is 1 μM. FAC of DMSO is 1%. • 2. Enzyme stock and FAC
(§12) • JAK-1: Invtirogen Cat: PR8767C • JAK-2: Invtirogen Cat: PR7820B • JAK-3: Invtirogen Cat: PR7507B • 3. Substrate (synthetic peptide-Biotinylated-N-terminal tag-[…] from Biopeptide) stock and FAC
(§13) • Adenosine 5′-triphosphate disodium salt hydrate: Sigma Cat: A26209 • 5. […] Buffers • Base buffer (for 50 ml)
(§14) • HTRF buffer: • 50 mM Tris-HCl, pH—7.5 • 100 mM NaCl • 0.1% BSA • 0.05% Tween20 • 0.5 mM EDTA
(§15) To a 384 well black-plate: • 1. Add 17 μL of the buffer to each well of the 384-well black plate • 2. […] Add 5 μl of the enzyme to each well of the plate • 4. Add 10 μl of the substrate and ATP mix to all the wells • 5. Cover with plate sealer • 6. […] Incubate at room temperature for 1 hour on shaker • 8. […] Add 37.5 μL of the HTRF mix to these wells. • 9. Incubate the plate at room temperature on shaker for 45 minutes. • 10.
as §8

Another test has as its target BRD3-BD1 (Homo sapiens (Human), UniProt Q15059). Description: AlphaLisa bromodomain binding assay, BRD3-BD1. To be noted: Table 6; read-out: BRD3(1) IC50.
Text: as §1, §2, §3, §4, §5, §6, §7, §8

The target in a further test is JAK1 (Homo sapiens (Human), UniProt P23458). The experiment in a line: HTRF kinase assay, JAK1. It counts as biochemical. The following applies: Table 6.
Text: as §9, §10, §11, §12, §13, §14, §15, §8

The next test concerns the target BRD4-BD2 (Homo sapiens (Human), UniProt O60885). Description: AlphaLisa bromodomain binding assay, BRD4-BD2. To be noted: Table 6; read-out: BRD4(2) IC50.
Text: as §1, §2, §3, §4, §5, §6, §7, §8

For a further test, the target named is BRDT-BD1 (Homo sapiens (Human), UniProt Q58F21). The experiment in a line: AlphaLisa bromodomain binding assay, BRDT-BD1. To be noted: Table 6; read-out: BRDT(1) IC50.
Text: as §1, §2, §3, §4, §5, §6, §7, §8

Chain of BRD3-BD1 (Q15059 34-140): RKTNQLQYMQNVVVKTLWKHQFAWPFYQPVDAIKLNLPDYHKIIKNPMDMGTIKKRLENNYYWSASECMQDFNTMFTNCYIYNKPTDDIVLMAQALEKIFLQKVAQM
Chain of JAK2 (O60674 whole entry): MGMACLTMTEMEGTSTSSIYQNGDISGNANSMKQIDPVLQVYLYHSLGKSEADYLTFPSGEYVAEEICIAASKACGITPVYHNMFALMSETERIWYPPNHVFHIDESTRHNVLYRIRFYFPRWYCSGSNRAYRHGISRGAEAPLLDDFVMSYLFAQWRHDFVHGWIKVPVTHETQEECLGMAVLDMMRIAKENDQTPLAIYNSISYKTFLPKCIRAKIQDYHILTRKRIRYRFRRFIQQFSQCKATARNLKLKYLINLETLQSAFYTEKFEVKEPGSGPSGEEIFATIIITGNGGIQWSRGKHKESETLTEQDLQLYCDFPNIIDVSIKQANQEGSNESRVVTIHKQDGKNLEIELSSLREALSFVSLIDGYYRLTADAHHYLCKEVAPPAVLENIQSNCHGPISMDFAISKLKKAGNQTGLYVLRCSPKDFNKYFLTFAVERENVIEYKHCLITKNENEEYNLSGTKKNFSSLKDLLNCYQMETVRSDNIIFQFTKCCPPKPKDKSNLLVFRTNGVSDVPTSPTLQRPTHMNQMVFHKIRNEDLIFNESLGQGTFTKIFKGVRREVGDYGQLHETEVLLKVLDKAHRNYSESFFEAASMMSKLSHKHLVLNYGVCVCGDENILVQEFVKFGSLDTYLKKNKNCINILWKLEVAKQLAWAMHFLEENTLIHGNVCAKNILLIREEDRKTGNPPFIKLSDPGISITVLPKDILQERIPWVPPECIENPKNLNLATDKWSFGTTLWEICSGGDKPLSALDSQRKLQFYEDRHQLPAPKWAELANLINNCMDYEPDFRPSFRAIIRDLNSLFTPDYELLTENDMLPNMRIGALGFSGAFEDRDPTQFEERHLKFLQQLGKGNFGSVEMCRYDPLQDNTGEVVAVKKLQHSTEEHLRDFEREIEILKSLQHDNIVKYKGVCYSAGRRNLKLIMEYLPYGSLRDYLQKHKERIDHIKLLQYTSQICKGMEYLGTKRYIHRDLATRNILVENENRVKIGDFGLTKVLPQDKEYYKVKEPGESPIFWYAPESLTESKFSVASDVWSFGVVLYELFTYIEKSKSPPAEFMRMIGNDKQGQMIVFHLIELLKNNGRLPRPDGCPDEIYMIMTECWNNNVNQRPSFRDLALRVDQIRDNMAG
Chain of BRD2-BD1 (P25440 74-180): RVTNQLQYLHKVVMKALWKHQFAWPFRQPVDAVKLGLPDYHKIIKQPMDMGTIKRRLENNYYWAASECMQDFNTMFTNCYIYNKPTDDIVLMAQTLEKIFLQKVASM
Chain of JAK3 (P52333 whole entry): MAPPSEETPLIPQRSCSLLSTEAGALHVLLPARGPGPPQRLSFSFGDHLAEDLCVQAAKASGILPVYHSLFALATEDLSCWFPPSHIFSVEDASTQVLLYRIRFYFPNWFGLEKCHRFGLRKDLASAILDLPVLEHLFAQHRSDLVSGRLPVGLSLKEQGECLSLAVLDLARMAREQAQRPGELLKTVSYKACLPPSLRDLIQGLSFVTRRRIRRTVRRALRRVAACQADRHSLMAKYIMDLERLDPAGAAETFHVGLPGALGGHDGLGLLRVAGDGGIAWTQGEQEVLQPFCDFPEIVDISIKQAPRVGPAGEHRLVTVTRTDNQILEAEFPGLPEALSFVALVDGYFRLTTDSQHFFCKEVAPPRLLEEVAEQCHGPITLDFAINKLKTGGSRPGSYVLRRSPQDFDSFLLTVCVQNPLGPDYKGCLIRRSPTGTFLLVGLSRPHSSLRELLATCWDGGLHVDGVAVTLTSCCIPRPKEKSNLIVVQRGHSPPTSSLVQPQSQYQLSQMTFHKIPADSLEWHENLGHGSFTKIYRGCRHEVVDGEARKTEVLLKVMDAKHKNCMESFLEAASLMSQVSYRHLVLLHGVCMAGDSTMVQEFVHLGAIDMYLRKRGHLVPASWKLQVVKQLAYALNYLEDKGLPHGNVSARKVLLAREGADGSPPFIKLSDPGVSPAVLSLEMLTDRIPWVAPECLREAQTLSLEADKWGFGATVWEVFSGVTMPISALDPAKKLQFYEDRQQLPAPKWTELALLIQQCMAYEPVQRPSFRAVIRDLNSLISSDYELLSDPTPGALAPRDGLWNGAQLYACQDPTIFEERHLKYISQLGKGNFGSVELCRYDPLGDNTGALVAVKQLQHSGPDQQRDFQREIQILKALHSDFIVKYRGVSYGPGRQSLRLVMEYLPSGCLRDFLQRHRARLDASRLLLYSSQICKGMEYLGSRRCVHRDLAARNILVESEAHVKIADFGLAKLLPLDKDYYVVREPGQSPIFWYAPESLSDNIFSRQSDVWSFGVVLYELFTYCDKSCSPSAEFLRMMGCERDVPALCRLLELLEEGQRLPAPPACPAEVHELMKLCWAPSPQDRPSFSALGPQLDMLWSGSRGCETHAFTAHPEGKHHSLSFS
Chain of JAK1 (P23458 whole entry): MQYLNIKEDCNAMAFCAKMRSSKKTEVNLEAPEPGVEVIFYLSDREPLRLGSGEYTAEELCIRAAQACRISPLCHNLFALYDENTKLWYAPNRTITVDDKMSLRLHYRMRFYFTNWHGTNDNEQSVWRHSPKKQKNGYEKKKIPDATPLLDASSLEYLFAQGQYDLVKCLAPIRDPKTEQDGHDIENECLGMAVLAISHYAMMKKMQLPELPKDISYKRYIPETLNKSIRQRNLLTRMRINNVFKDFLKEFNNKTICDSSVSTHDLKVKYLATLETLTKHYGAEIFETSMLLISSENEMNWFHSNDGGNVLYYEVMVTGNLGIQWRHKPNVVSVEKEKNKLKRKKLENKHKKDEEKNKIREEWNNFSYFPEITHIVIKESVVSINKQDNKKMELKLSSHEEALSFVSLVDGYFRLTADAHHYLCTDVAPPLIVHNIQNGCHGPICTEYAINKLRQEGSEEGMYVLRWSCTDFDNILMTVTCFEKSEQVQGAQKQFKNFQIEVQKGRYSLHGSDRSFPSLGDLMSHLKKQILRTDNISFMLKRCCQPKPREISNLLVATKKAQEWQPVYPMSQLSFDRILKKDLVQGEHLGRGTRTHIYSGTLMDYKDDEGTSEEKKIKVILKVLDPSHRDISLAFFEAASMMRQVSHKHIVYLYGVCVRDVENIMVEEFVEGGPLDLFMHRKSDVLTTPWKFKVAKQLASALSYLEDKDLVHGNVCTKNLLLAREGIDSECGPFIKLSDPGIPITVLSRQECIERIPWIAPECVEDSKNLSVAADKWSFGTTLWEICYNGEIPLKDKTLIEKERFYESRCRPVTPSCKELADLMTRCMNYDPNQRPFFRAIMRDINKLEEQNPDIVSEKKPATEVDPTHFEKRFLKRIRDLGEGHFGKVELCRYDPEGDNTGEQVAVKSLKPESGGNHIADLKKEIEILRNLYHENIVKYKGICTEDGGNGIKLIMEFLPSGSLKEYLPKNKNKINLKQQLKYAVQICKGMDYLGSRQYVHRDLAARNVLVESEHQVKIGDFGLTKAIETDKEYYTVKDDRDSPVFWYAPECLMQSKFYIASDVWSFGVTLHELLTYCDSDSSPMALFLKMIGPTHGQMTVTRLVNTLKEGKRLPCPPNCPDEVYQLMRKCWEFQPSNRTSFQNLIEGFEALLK

`COc1cc(Nc2ncc3ccn(-c4cccc(NS(=O)(=O)C(C)(C)C)c4)c3n2)ccc1N1CCNCC1`: the IC50 on BRD4-BD1 was found to be 402 nM; on JAK2, 2.8 nM; at BRD2-BD1, 548 nM; at JAK3, 112 nM; at BRD3-BD1, 142 nM; at JAK1 it was 275 nM. Besides, the IC50 at BRD4-BD2 was determined as 128 nM; at BRDT-BD1 it was 320 nM.
As for `Cc1cnc(Nc2ccc(OCCN3CCCC3)cc2)nc1Nc1cccc(NS(=O)(=O)C(C)(C)C)c1`, the IC50 on BRD4-BD1 was found to be 420 nM; at JAK2, 2.3 nM; at BRD2-BD1 it was 682 nM; on JAK3, 185 nM; on BRD3-BD1, 853 nM; at BRD4-BD2 it was 451 nM. Moreover, the IC50 at BRDT-BD1 came to 638 nM.
With `CN(C)C1CCN(c2ccc(Nc3ncc4ccn(-c5cccc(NS(=O)(=O)C(C)(C)C)c5)c4n3)cc2)CC1` [drawing 317], the IC50 on BRD4-BD1 came to 173 nM; on JAK2, 7.3 nM; on BRD2-BD1, 632 nM; at JAK3 it was 81 nM; on BRD3-BD1, 164 nM; at JAK1 it was 400 nM. For the same molecule, the IC50 at BRD4-BD2 was determined as 62 nM; on BRDT-BD1, 406 nM.
For the molecule `CC(C)(C)S(=O)(=O)Nc1cc(-n2ccc3cnc(Nc4ccc(N5CCNCC5)c(F)c4)nc32)ccc1F` [drawing 428], the IC50 was found to be 60 nM at BRD4-BD1; 33 nM at JAK2; 216 nM at BRD2-BD1; 272 nM at JAK3; 59 nM at BRD3-BD1; 2100 nM on JAK1. The IC50 at BRD4-BD2 stood at 64 nM; at BRDT-BD1, 118 nM.
Regarding `O=S(=O)(Nc1cccc(-n2ccc3cnc(Nc4ccc(N5CCNCC5)cc4)nc32)c1)C1CC1` [drawing 296], the IC50 was 677 nM on BRD4-BD1; 2 nM at JAK2; 2960 nM at BRD2-BD1; 15 nM on JAK3; 914 nM at BRD3-BD1; 188 nM at JAK1. Moreover, the IC50 on BRD4-BD2 came out at 574 nM; at BRDT-BD1, 1210 nM.
As for `CC(C)(C)S(=O)(=O)Nc1cccc(-n2ccc3cnc(Nc4ccc(C(=O)NC5CCNCC5)c(F)c4)nc32)c1`, the IC50 at BRD4-BD1 came to 398 nM; on BRD2-BD1, 467 nM; at JAK3 it was 242 nM; at BRD3-BD1 it was 78 nM; at JAK1, 206 nM; on BRD4-BD2, 99 nM. Further, on BRDT-BD1, the IC50 was found to be 312 nM.
Turning to `CN1CCN(c2ccc(Nc3ncc4ccn(-c5ccc(F)c(NS(=O)(=O)C(C)(C)C)c5)c4n3)cc2)CC1` [drawing 295], the IC50 on BRD4-BD1 was 128 nM; at JAK2 it was 35 nM; on BRD2-BD1 it was 490 nM; at JAK3, 105 nM; on BRD3-BD1, 109 nM; at JAK1 it was 972 nM. Also, the results for the IC50 on BRD4-BD2 and at BRDT-BD1 were 67.5 nM and 182 nM, respectively.
As to `CNC1CCN(c2ccc(Nc3ncc4ccn(-c5ccc(F)c(NS(=O)(=O)C(C)(C)C)c5)c4n3)cc2F)CC1` [drawing 457], the IC50 on BRD4-BD1 is 150 nM; on JAK2 it was 52 nM; on BRD2-BD1, 420 nM; at JAK3 it was 608 nM; on JAK1 it was 9900 nM; at BRD4-BD2, 88 nM. In addition, on BRDT-BD1, the concentration for half-maximal inhibition (IC50) turned out to be 302 nM.
`CN1CCN(c2ccc(Nc3ncc4ccn(-c5cccc(NS(=O)(=O)C(C)(C)C)c5)c4n3)cc2C#N)CC1`: the IC50 at BRD4-BD1 was determined as 378 nM; on JAK2 it was 18.9 nM; on BRD2-BD1 it was 1150 nM; on JAK3, 338 nM; at BRD3-BD1, 248 nM; at JAK1 it was 1100 nM. In addition, the IC50 at BRD4-BD2 was 491 nM; at BRDT-BD1 it was 1000 nM.
Turning to `Cc1cnc(Nc2ccc(N3CCN(C)CC3)c(F)c2)nc1Nc1ccc2c(c1)N(S(=O)(=O)C(C)(C)C)CC2` [drawing 246], the IC50 came out at 93.4 nM at BRD4-BD1; 254 nM on BRD2-BD1; 313 nM at JAK3; 183 nM at BRD3-BD1; 112 nM on BRD4-BD2; 228 nM at BRDT-BD1.
For `CN(C)C1CCN(C(=O)c2ccc(Nc3ncc4ccn(-c5cccc(NS(=O)(=O)C(C)(C)C)c5)c4n3)cc2F)CC1`, the IC50 is 246 nM on BRD4-BD1; 20 nM at JAK2; 318 nM at BRD2-BD1; 292 nM at JAK3; 117 nM at BRD3-BD1; 1100 nM at JAK1. Further, the IC50 is 29 nM on BRD4-BD2 and 189 nM at BRDT-BD1.
`CC(C)(C)S(=O)(=O)Nc1cccc(-n2ccc3cnc(Nc4ccc(N5CCNCC5)cc4)nc32)c1` [drawing 283]: the IC50 came out at 152 nM at BRD4-BD1; 12 nM on JAK2; 1580 nM at BRD2-BD1; 67 nM at JAK3; 500 nM on BRD3-BD1; 418 nM on JAK1. The IC50 on BRD4-BD2 came to 254 nM; on BRDT-BD1 it was 632 nM.
On to `CC(C)(C)S(=O)(=O)Nc1cccc(-n2ccc3cnc(Nc4ccc(C5CCNCC5)cc4)nc32)c1`, for which the IC50 came out at 676 nM at BRD4-BD1; 1400 nM on BRD2-BD1; 100 nM at JAK3; 570 nM at BRD3-BD1; 473 nM on JAK1; 325 nM at BRD4-BD2. Moreover, the IC50 on BRDT-BD1 was found to be 322 nM.
In the case of `CN1CCN(c2ccc(Nc3ncc4ccn(-c5cccc(NS(=O)(=O)C6CC6)c5)c4n3)cc2)CC1` [drawing 297], the IC50 on BRD4-BD1 came to 1460 nM; at JAK2, 4.3 nM; at BRD2-BD1 it was 6210 nM; at JAK3 it was 31 nM; at BRD3-BD1 it was 1740 nM; on BRD4-BD2, 1350 nM. For the same molecule, on BRDT-BD1, the IC50 was 2630 nM.
For the molecule `Cc1cnc(Nc2ccc(C(=O)NC3CCN(C)CC3)c(F)c2)nc1Nc1ccc2c(c1)N(S(=O)(=O)C(C)(C)C)CC2`, the IC50 on BRD4-BD1 stood at 87 nM; at JAK2, 24 nM; at BRD2-BD1 it was 157 nM; at BRD3-BD1 it was 92 nM; at JAK1, 1010 nM; on BRD4-BD2 it was 30 nM. In addition, the IC50 on BRDT-BD1 was determined as 131 nM.
As for `CN1CCN(c2ccc(Nc3ncc4ccn(-c5cccc(NS(=O)(=O)C(C)(C)C)c5)c4n3)cc2)CC1` [drawing 260], the IC50 at BRD4-BD1 amounted to 220 nM; on BRD2-BD1, 700 nM; on JAK3, 127 nM; at BRD3-BD1, 270 nM; on JAK1, 243 nM; at BRD4-BD2, 175 nM. Also, the IC50 on BRDT-BD1 amounted to 696 nM.
As to `COc1cc(Nc2ncc3ccn(-c4cccc(NS(=O)(=O)C(C)(C)C)c4)c3n2)ccc1N1CCN(C)CC1`, the IC50 on BRD4-BD1 turned out to be 431 nM; at BRD2-BD1, 743 nM; on JAK3, 82 nM; at BRD3-BD1 it was 161 nM; on JAK1 it was 293 nM; at BRD4-BD2, 130 nM. For the same molecule, on BRDT-BD1, the IC50 came out at 363 nM.
